In patent US9464064B2, “HCV helicase inhibitors and methods of use thereof” (University of Kansas, priority 2011, dated 2016):

Molecular target: T1, HCV NS3 helicase NS3h_1b(con1) (Hepatitis C virus genotype 1b, UniProt Q9WMX2)
T1 construct: truncated C-terminally His-tagged NS3 proteins lacking the N-terminal protease, called NS3h; His-tag (C); made in house
Experiment: MBHA screen of NCI mechanistic set library at 20 μM (percent inhibition, compound interference)
Assay type: biochemical
Conditions: compounds at 20 μM; for Inh. (%) (Inhibition): calculated from Equation 1
Method in brief: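 Molecular beacon-based DNA unwinding assay; compounds screened at 20 μM in triplicate, with DMSO-only negative and 500 nM dT20 positive controls. Fluorescence (ex 643/em 670 nm) was read before and 30 min after adding ATP to 1 mM. Percent inhibition came from the change relative to DMSO controls; interference from pre-ATP fluorescence versus DMSO controls.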

[1] = MBHA with DNA substrate, assay interference calculated with Equation 2
[2] = assay interference calculated with Equation 2 (fluorescence vs DMSO-only controls before ATP)

T1 sequence (Q9WMX2 1192-1657): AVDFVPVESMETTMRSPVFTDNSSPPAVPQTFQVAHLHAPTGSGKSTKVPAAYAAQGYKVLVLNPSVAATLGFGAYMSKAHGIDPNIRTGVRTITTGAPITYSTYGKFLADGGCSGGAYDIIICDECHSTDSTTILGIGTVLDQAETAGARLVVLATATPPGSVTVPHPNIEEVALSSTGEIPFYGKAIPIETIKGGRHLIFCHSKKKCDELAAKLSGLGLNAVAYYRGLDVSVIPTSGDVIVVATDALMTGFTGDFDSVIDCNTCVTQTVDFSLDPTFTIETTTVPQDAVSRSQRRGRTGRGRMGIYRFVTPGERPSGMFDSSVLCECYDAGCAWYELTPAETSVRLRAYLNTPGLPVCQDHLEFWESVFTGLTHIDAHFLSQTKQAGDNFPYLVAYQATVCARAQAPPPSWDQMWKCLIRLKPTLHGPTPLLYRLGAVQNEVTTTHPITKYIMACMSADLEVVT

SMILES | Int.* (Ratio) (Interference) [1] | Inh. (%) (Inhibition) (MBHA with DNA substrate) | Inh. (%) (Inhibition) (MBHA with a DNA substrate) | Int.* (Ratio) (Interference) [2]
C=C1C(C)C2C(Cc3ccccc3)NC(=O)C23C(OC(C)=O)/C=C/C(C)(O)CC(C)C/C=C/C3C1O (centres unmarked) [Compound 305222] | 1.03 Ratio | 12.2% |  | 
Nc1nc(N)c2cc(Sc3cccc(C(F)(F)F)c3)ccc2n1 [Compound 305782] | 0.87 Ratio | 28.4% |  | 
CC(C)(C)NCCC(O)c1cc(C(F)(F)F)nc2c(C(F)(F)F)cccc12.O=P(O)(O)O (centres unmarked) [Compound 305819] | 0.99 Ratio | 28.1% |  | 
CC(=O)N(C)c1ccc(Nc2cc(C)[nH]c3ccc4ncnc4c23)cc1.Cl [Compound 305884] |  |  | 8.9% | 1.04 Ratio
C[C@@H]1CC[C@@]2(OC1)O[C@H]1CC3[C@@H]4CC=C5C[C@@H](O[C@@H]6O[C@H](CO)[C@@H](O[C@@H]7O[C@@H](C)[C@H](O[C@@H]8O[C@@H](C)[C@H](O)[C@@H](O)[C@@H]8O)[C@@H](O)[C@H]7O)[C@H](O)[C@H]6O[C@@H]6O[C@@H](C)C(O)[C@@H](O)[C@H]6O)CC[C@]5(C)[C@H]4CC[C@]3(C)[C@H]1[C@@H]2C (some centres unmarked) [Compound 306864] | 0.86 Ratio | 1.3% |  | 
O=NN(CCCl)C(=O)NCc1ccc[n+]([O-])c1 [Compound 307454] |  |  | −2.9% | 1.08 Ratio
CN(C)CCN1C(=O)c2cccc3cc(N)cc(c23)C1=O [Compound 308847] | 1.05 Ratio | −13.3% |  | 
CC(=O)O.Cc1c2cc[n+](CCN3CCCCC3)cc2c(C)c2c1[nH]c1ccc(O)cc12 [Compound 311153] | 0.29 Ratio | 5.0% |  | 
CCP(CC)CC.[Au+].[Cl-] [Compound 313981] |  |  | −3.8% | 0.93 Ratio
COc1cc2c3c(n(C)c(=O)c2cc1OC)-c1cc2c(cc1C3=O)OCO2 [Compound 314622] | 0.70 Ratio | 23.1% |  | 
O=C1c2ccccc2C(=O)c2c(O)c(NCCNCCO)cc(O)c21 [Compound 316157] | 0.70 Ratio | 36.4% |  | 
C/C(=N\NC(=S)N1CCC1)c1ccccn1 [Compound 319726] | 1.02 Ratio | 3.2% |  | 
Nc1ccc2c(c1)CN1C(=O)c3ccccc3C1=N2 [Compound 320846] |  |  | 10.7% | 0.90 Ratio
O=C(N=Nc1c(O)[nH]c2c(Cl)cc(Cl)cc12)c1ccccc1O [Compound 320864] | 0.80 Ratio | 4.4% |  | 
COc1ccc2c(c1[N+](=O)[O-])CC[C@@H]1[C@@H]2CC[C@]2(C)C(=O)CC[C@@H]12 [Compound 321803] | 1.02 Ratio | −11.7% |  | 
C/C(=N\N=C(/[Se])N1CC2CCC(CC2)C1)c1ccccn1 [Compound 323241] |  |  | 10.7% | 0.90 Ratio
CCCCCCCCCCCCCCCCCCOCC(COP(=O)([O-])OCC[N+](C)(C)C)OC (centres unmarked) [Compound 324368] | 0.85 Ratio | −15.0% |  | 
CCCCS(=N)(=O)CCC(N)C(=O)O (centres unmarked) [Compound 326231] | 0.94 Ratio | 28.0% |  | 
Clc1cc2nc[nH]c2cc1Cl [Compound 326397] | 1.06 Ratio | 1.6% |  | 
CN(C)c1ccc(/C=N/N=C2\C(=O)Nc3c(Cl)cc(Cl)cc32)cc1 [Compound 327697] | 1.22 Ratio | −10.2% |  | 
C[C@@H]1CCOC(=O)/C=C/C=C\C(=O)O[C@@H]2C[C@H]3O[C@@H]4[C@@H]5O[C@]5(C)[C@H](O)C[C@]4(COC(=O)[C@H]1O)[C@]2(C)[C@@]31CO1 [Compound 328166] | 1.04 Ratio | 20.7% |  | 
CC(=O)OC1C(O)C(C)OC(OC2C(OC(=O)C3CCC4C(C3)OC3(CC(OC(=O)/C=C/c5ccccc5)C(C)CO3)C43CO3)OC(C)C(O)C2OC(C)=O)C1O (centres unmarked) [Compound 328426] |  |  | −3.0% | 1.00 Ratio

SMILES | Int.* (Ratio) (Interference) [1] | Inh. (%) (Inhibition) (MBHA with DNA substrate) | Inh. (%) (Inhibition) (MBHA with a DNA substrate) | Int.* (Ratio) (Interference) [2]
Cc1c(Cl)cccc1NC(=O)c1cccc([N+](=O)[O-])c1O [Compound 328477] | 0.96 Ratio | −0.8% |  | 
CC1(C)CC2=NO[Se]3=C2C(=NO3)C1 [Compound 328587] | 0.95 Ratio | −1.3% |  | 
CCOc1cccc(/C=N/N=C2\C(=O)Nc3c(Cl)cc(Cl)cc32)c1O [Compound 329277] | 1.08 Ratio | −11.4% |  | 
O=C1Nc2c(Cl)cc(Cl)cc2C1=NN=Cc1ccco1 [Compound 329279] | 0.94 Ratio | 1.9% |  | 
C=C1C(=O)O[C@@H]2/C=C(/C)C(=O)C[C@H]3OC(C)(C)O[C@]3(C)C[C@@H](OC(=O)/C(C)=C\C)[C@@H]12 [Compound 329696] | 0.81 Ratio | 32.6% |  | 
COC1CC(C)C(OC)c2cc(O)cc(c2O)NC(=O)/C(C)=C/C=C\C(C)C(OC(N)=O)/C(C)=C/C(C)C1OC (centres unmarked) [Compound 330500] |  |  | 12.0% | 1.04 Ratio
COc1cc2c(c(O)c1OC)-c1c(cc(OC)c(OC)c1OC)C[C@@H](C)[C@@H](C)C2 [Compound 330515] | 0.95 Ratio | 4.3% |  | 
COc1cc2c(c(OC)c1OC)-c1c(cc3c(c1OC)OCO3)CC(C)C(C)(O)C2OC(=O)c1ccccc1 (centres unmarked) [Compound 330516] | 0.92 Ratio | 13.8% |  | 
CC(=O)O[C@H]1C(=O)[C@@]2(C)[C@H]([C@H](OC(=O)c3ccccc3)[C@]3(O)C[C@H](O)C(C)=C1C3(C)C)[C@]1(OC(C)=O)CO[C@@H]1C[C@@H]2O [Compound 330753] |  |  | −24.1% | 0.88 Ratio
CCOC(=O)Nc1cc2c(c(N)n1)N=C(c1ccccc1)CN2 [Compound 330770] | 0.91 Ratio | −1.6% |  | 
CCN(CC)CCCC(C)NC(=O)c1ccc2c(c1)C(=O)c1ccccc1C2=O.Cl (centres unmarked) [Compound 331757] | 0.93 Ratio | −16.9% |  | 
CO[C@@H](/C(C)=C/C=C/C(C)=C/c1coc(C)n1)[C@@H](C)[C@@H]1C[C@H](O)[C@@]2(C)O[C@@H]2/C=C/[C@@H](C)[C@H]2C[C@H](CC(=O)O2)C[C@@H]2O[C@H]2C(=O)O1 [Compound 332598] | 0.98 Ratio | −11.7% |  | 
COC(=O)NC1C(C)OC(OC2C/C=C(\C)C3C=C[C@H]4C(OC5CC(OC6CCC(OC7CC(O)C(OC8CCC(O)C(C)O8)C(C)O7)C(C)O6)C(OC(C)=O)C(C)O5)C(C)CC(C)[C@@H]4[C@@]3(C)C([O-])=C3C(=O)OC4(CC(C=O)=CC(O)[C@@H]4/C=C\2C)C3=O)CC1(C)[N+](=O)[O-].[Na+] (some centres unmarked) [Compound 333856] |  |  | −5.2% | 0.95 Ratio
Cc1c2ccnc(C(N)=O)c2c(C)c2c1[nH]c1ccccc12.Cl [Compound 335142] | 0.95 Ratio | −1.5% |  | 
O=C1NC(=S)NC(=O)C1C(=O)Nc1ccccc1 [Compound 336628] | 0.90 Ratio | 17.4% |  | 
O=C1c2ccccc2-c2c1c1ccccc1c(=O)n2Cc1ccccc1 [Compound 337612] | 0.97 Ratio | −16.5% |  | 
C(=N\NC1=NCCN1)/c1c2ccccc2c(/C=N/NC2=NCCN2)c2ccccc12 [Compound 337766] | 0.65 Ratio | 70.0% |  | 
CN(C)c1ccc2c(SCC(=O)OCC(=O)[C@@]3(O)CC[C@H]4[C@@H]5CCC6=CC(=O)C=C[C@]6(C)[C@H]5C(=O)C[C@@]43C)c3ccc(N(C)C)cc3nc2c1 [Compound 337851] | 0.29 Ratio | 2.3% |  | 
Oc1cc2c3c(c1)c1cc4c(cc1c[n+]3CC2)OCO4.[Cl-] [Compound 338259] | 0.93 Ratio | 45.5% |  | 
COc1nc(C(Cl)(Cl)Cl)c(Cl)c(OC)c1Cl [Compound 338720] |  |  | 7.0% | 0.93 Ratio
Nc1ccc(S(=O)(=O)Nc2cnc3c(Cl)cccc3n2)cc1 [Compound 339004] | 0.89 Ratio | 18.5% |  | 
